Data published in US9993570B2, “Radiolabeled tracers for poly (ADP-ribose) polymerase-1 (PARP-1), methods and uses therefor” (Washington University, priority 2014, dated 2018).

System: Lung cell lines NCI-h69 and NCI-h82
Experiment: [18F]WC-4-138 uptake in cell culture, small cell lung cancer lines
Format: cell-based
Conditions: NCI-h69 and NCI-h82, incubation 5, 30 or 60 minutes, normalized to protein
Procedure: In these experiments, the head and neck squamous cell carcinoma lines SCC1, SCC15, and SCC25 (ATCC) were propagated in Dulbecco's Modified Eagle's Medium (DMEM, Gibco) supplemented with 10% Fetal Bovine Serum (FBS, Gibco), Penicillin-Streptomycin (P/S, Gibco), and 100 ng/ml hydrocortisone (Sigma-Aldrich). The small cell lung cancer lines NCI-h69 and NCI-h82 (ATCC) were propagated m RPMI Medium (Gibco) supplemented with 10% FBS and 1% P/S. The human breast cancer cell line MDA-MB-231 (ATCC) was propagated in Eagle's Minimum Essential Medium (Gibco) supplemented with 5% FBS, 2% Vitamins for MEM (Gibco), 1% 200 mM L-glutamine (Gibco), 1% 10 mM Non-Essential Amino Acid (NEAA, Gibco).
For each experimental replicate, approximately 1 μCi of [^18F]WC-4-138 was diluted in 1 ml of cell culture medium and added to 10^6 cells. […] Radioactivity was measured in the collected medium, PBS, or cell pellets. Protein from the cell pellet was quantified using a […]. All data were decay-corrected and normalized to total protein quantity in the cell pellet. […]
The head and neck cell lines SCC1 and SCC25 constitutively take up small amounts of tracer, registering as 0.001-0.002 μCi/μg in the cell pellet (FIG. 5A). […] PARP activity was measured in HNSCC or lung SCLC cells. […]

Question: How did the “tracer uptake in the cell pellet” value turn out when O=C1NCCn2c(-c3ccc(OCC[18F])cc3)nc3cccc1c32 [[^18F]12] was run?
Answer: 0.004-0.006 μCi/μg
